Reference: patent US20250248970A1, “NOVEL SUBSTITUTED FLUORINATED N-PROPYL-PYRROLIDINE COMPOUNDS, PROCESSES FOR THEIR PREPARATION AND THERAPEUTIC USES THEREOF” (SANOFI, priority 2022, published 2025)

What follows are molecules tested against T1, ERα (Homo sapiens, UniProt P03372) (assay: Estrogen receptor degradation activity (breast cancer cell ERα in cell western assay)). Settings: MCF7 cells, 0.3 μM, 4 hours, % of ERα levels decrease relative to fulvestrant.
T1 construct: host or cells: MCF7
T1 sequence (P03372 1-595): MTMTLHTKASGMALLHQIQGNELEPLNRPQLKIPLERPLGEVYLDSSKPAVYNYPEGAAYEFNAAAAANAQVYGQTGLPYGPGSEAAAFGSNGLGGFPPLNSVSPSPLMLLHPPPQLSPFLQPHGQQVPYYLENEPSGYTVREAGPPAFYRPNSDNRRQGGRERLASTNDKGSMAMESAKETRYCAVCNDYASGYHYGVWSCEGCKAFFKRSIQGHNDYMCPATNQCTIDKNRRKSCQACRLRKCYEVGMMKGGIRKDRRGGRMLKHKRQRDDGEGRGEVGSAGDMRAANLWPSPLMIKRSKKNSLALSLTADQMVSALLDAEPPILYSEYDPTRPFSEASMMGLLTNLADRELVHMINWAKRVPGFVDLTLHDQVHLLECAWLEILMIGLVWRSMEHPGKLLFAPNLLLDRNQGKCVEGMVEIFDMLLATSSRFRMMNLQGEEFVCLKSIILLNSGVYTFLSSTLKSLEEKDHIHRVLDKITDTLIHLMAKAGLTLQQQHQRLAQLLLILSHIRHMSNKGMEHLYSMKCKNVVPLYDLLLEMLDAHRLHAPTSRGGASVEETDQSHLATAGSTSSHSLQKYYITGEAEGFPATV
Type: cell-based
Procedure: Said test involves measuring the in vitro degradation activity of the compounds of the Table 1a.
The measurements of the degradation activities were made using a breast cancer cell ERα in cell western assay as described hereunder.
MCF7 cells (ATCC) were seeded in 384 wells microplate (collagen coated) at a concentration of 10000 cells/30 μL per well in red phenol free MEM alpha medium (invitrogen) containing 5% charcoal dextran striped FBS. The following day, 9 points serial 1:5 dilution of each compound was added to the cells in 2.5p L at final concentrations ranging from 0.3-0.0000018 μM (in table 2), or 0.1 μM for fulvestrant (using as positive control). At 4 hours post compound addition the cells were fixed by adding 25 μL of formalin (final concentration 5% formalin containing 0.1% triton) for 10 minutes at room temperature and then washed twice with PBS. Then, 50 μL of LI-COR blocking buffer containing 0.1% Triton was added to plate for 30 minutes at room temperature. LI-COR blocking buffer was removed and cells were incubated overnight at cold room with 50 μL anti-ER rabbit monoclonal antibody (Thermo scientific MA1-39540) diluted at 1:1000 in LI-COR blocking buffer containing 0.1% tween-20. Wells which were treated with blocking buffer but no antibody were used as background control. Wells were washed twice with PBS (0.1% tween-20) and incubated at 37° C. for 60 minutes in LI-COR (0.1% tween-20) containing goat anti-rabbit antibody Alexa 488 (1:1000) and Syto-64 a DNA dye (2 μM final concentration). Cells were then washed 3 times in PBS and scanned in ACUMEN explorer (TTP-Labtech). Integrated intensities in the green fluorescence and red fluorescence were measured to determine the levels of ERα and DNA respectively.
The degradation activity with respect to estrogen receptors in this test is given by the concentration which degrades 50% of the estrogen receptor (or IC50) in nM.
The % of ERα levels decrease were determined as follows: % inhibition=100*(1−(sample−fulvestrant: DMSO−fulvestrant)).

| Compound | % Degradation At 0.3 μM [%] |
| --- | --- |
| Cc1cccc(C2=C(c3ccc(CC4CCN(CCC(F)F)C4)cc3)c3ccc(C(=O)O)cc3CCC2)c1C(F)(F)F.Cl (single isomer, unassigned; isomer 1) [Compound 34, 9-(4-((1-(3,3-difluoropropyl)pyrrolidin-3-yl)methyl)phenyl)-8-(3-methyl-2-(trifluoromethyl)phenyl)-6,7-dihydro-5H-benzo[7]annulene-3-carboxylic acid hydrochloride, Isomer 1] | 85 |
| Cc1cc(F)cc(C)c1C1=C(c2ccc(CC3CCN(CCCF)C3)cc2)c2ccc(C(=O)O)cc2CCC1.Cl (single isomer, unassigned; isomer 1) [Compound 35, 8-(4-fluoro-2,6-dimethylphenyl)-9-(4-((1-(3-fluoropropyl)pyrrolidin-3-yl)methyl)phenyl)-6,7-dihydro-5H-benzo[7]annulene-3-carboxylic acid hydrochloride, Isomer 1] | 84 |
| Cl.O=C(O)c1ccc2c(c1)CCC(c1ccc(Cl)cc1Cl)=C2c1ccc(CC2CCN(CCCF)C2)cc1 (single isomer, unassigned; isomer 1) [Compound 36, 6-(2,4-dichlorophenyl)-5-(4-((1-(3-fluoropropyl)pyrrolidin-3-yl)methyl)phenyl)-7,8-dihydronaphthalene-2-carboxylic acid hydrochloride, Isomer 1] | 92 |
| Cl.O=C(O)c1ccc2c(c1)CCCC(c1ccc(Cl)cc1)=C2c1ccc(CC2CCN(CCCF)C2)cc1 (single isomer, unassigned; isomer 1) [Compound 37, 8-(4-chlorophenyl)-9-(4-((1-(3-fluoropropyl)pyrrolidin-3-yl)methyl)phenyl)-6,7-dihydro-5H-benzo[7]annulene-3-carboxylic acid hydrochloride, Isomer 1] | 93 |
| Cl.O=C(O)c1ccc2c(c1)CCCC(c1ccc(C(F)(F)F)cc1)=C2c1ccc(CC2CCN(CCCF)C2)cc1 (single isomer, unassigned; isomer 1) [Compound 38, 9-(4-((1-(3-fluoropropyl)pyrrolidin-3-yl)methyl)phenyl)-8-(4-(trifluoromethyl)phenyl)-6,7-dihydro-5H-benzo[7]annulene-3-carboxylic acid hydrochloride, Isomer 1] | 92 |
| Cl.O=C(O)c1ccc2c(c1)CCCC(c1cccc(C(F)(F)F)c1)=C2c1ccc(CC2CCN(CCCF)C2)cc1 (single isomer, unassigned; isomer 1) [Compound 39, 9-(4-((1-(3-fluoropropyl)pyrrolidin-3-yl)methyl)phenyl)-8-(3-(trifluoromethyl)phenyl)-6,7-dihydro-5H-benzo[7]annulene-3-carboxylic acid hydrochloride, Isomer 1] | 76 |
| Cl.O=C(O)c1ccc2c(c1)CCCC(c1cccc(Cl)c1)=C2c1ccc(CC2CCN(CCCF)C2)cc1 (single isomer, unassigned; isomer 1) [Compound 40, 8-(3-chlorophenyl)-9-(4-((1-(3-fluoropropyl)pyrrolidin-3-yl)methyl)phenyl)-6,7-dihydro-5H-benzo[7]annulene-3-carboxylic acid hydrochloride, Isomer 1] | 73 |
| CC1CCc2cc(C(=O)O)ccc2C(c2ccc(CC3CCN(CCCF)C3)cc2)=C1c1ccc(C(F)(F)F)cc1 (single isomer, unassigned; isomer 1) [Compound 41, 9-(4-((1-(3-fluoropropyl)pyrrolidin-3-yl)methyl)phenyl)-7-methyl-8-(4-(trifluoromethyl)phenyl)-6,7-dihydro-5H-benzo[7]annulene-3-carboxylic acid, Isomer 1] | 100 |
| Oc1ccc2c(c1)SCCC(c1ccc(Cl)cc1Cl)=C2c1ccc(CC2CCN(CCCF)C2)cc1 (single isomer, unassigned; isomer 1) [Compound 43, 4-(2,4-dichlorophenyl)-5-(4-((1-(3-fluoropropyl)pyrrolidin-3-yl)methyl)phenyl)-2,3-dihydrobenzo[b]thiepin-8-ol, Isomer 1] | 80 |
| Oc1ccc2c(c1)SCCC(c1ccccc1Cl)=C2c1ccc(CC2CCN(CCCF)C2)cc1 (single isomer, unassigned; isomer 1) [Compound 44, 4-(2-chlorophenyl)-5-(4-((1-(3-fluoropropyl)pyrrolidin-3-yl)methyl)phenyl)-2,3-dihydrobenzo[b]thiepin-8-ol, Isomer 1] | 70 |
| Cl.O=C(O)c1ccc2c(c1)OCCC(c1ccc(Cl)cc1Cl)=C2c1ccc(CC2CCN(CCCF)C2)cc1 (single isomer, unassigned; isomer 2) [Compound 8, 4-(2,4-dichlorophenyl)-5-(4-((1-(3-fluoropropyl)pyrrolidin-3-yl)methyl)phenyl)-2,3-dihydrobenzo[b]oxepine-8-carboxylic acid hydrochloride, Isomer 2] | 63 |
| O=C(O)C(F)(F)F.O=C(O)c1ccc2c(c1)CCCC(c1ccc(Cl)cc1Cl)=C2c1ccc(CC2(F)CCN(CCCF)C2)cc1 (single isomer, unassigned; isomer 2) [Compound 22, 8-(2,4-dichlorophenyl)-9-(4-((3-fluoro-1-(3-fluoropropyl)pyrrolidin-3-yl)methyl)phenyl)-6,7-dihydro-5H-benzo[7]annulene-3-carboxylic acid, 2,2,2-trifluoroacetic acid, Isomer 2] | 48 |
| CC1CCc2cc(C(=O)O)ccc2C(c2ccc(CC3CCN(CCCF)C3)cc2)=C1c1ccc(C(F)(F)F)cc1 (single isomer, unassigned; isomer 2) [Compound 42, 9-(4-((1-(3-fluoropropyl)pyrrolidin-3-yl)methyl)phenyl)-7-methyl-8-(4-(trifluoromethyl)phenyl)-6,7-dihydro-5H-benzo[7]annulene-3-carboxylic acid, Isomer 2] | 90 |
| O=C(O)c1ccc2c(c1)CCCC(c1ccc(Cl)cc1Cl)=C2c1ccc(C[C@@H]2CCN(CCCF)C2)cc1 [Compound 24, 8-(2,4-dichlorophenyl)-9-(4-((1-(3-fluoropropyl)pyrrolidin-3-yl)methyl)phenyl)-6,7-dihydro-5H-benzo[7]annulene-3-carboxylic acid, (R) Isomer] | 46 |
| O=C(O)c1ccc2c(c1)CCCC(c1ccccc1C(F)(F)F)=C2c1ccc(CC2CCN(CCC(F)F)C2)cc1 (stereo not drawn) [Compound 33, 9-(4-((1-(3,3-difluoropropyl)pyrrolidin-3-yl)methyl)phenyl)-8-(2-(trifluoromethyl)phenyl)-6,7-dihydro-5H-benzo[7]annulene-3-carboxylic acid] | 76 |
